Our source for the Ki and IC50 values is BindingDB's records for doi:10.1016/S1074-5521(02)00184-9 (The Scripps Research Institute, 2002).

Broadly, the Ki is a dissociation constant, usually derived from enzyme kinetics or from competition with a known ligand. A lower Ki goes with a stronger hold on the target. By IC50 is commonly meant the midpoint of a concentration-inhibition curve. Low readings indicate greater potency, high ones weaker potency.

HIV-1 protease, sequence (O90785 whole entry): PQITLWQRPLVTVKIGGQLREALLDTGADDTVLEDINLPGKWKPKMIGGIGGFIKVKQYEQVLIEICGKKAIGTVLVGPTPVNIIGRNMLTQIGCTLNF

The assay concerns the target HIV-1 protease (Human immunodeficiency virus, UniProt O90785). The assay is described as follows: Inhibition Assay. Conditions: pH 5.6; 37 °C. The source says: Inhibition of HIV-protease activity for selected acids at P3-P3' positions.
`CC(C)[C@H](NC(=O)OCc1ccccc1)C(=O)N[C@@H](Cc1ccccc1)[C@@H](O)[C@H](O)[C@H](Cc1ccccc1)NC(=O)[C@@H](NC(=O)OCc1ccccc1)C(C)C` registered a Ki of 0.0015 µM.

Take `CC(C)[C@H](NC(=O)Cc1c[nH]c2ccccc12)C(=O)N[C@@H](Cc1ccccc1)[C@@H](O)[C@H](O)[C@H](Cc1ccccc1)NC(=O)[C@@H](NC(=O)Cc1c[nH]c2ccccc12)C(C)C` [P3-P3' Entry 1]: the midpoint of inhibition, the IC50, lay at 0.017 µM.

For the compound `CC(C)[C@H](NC(=O)CCc1c[nH]c2ccccc12)C(=O)N[C@@H](Cc1ccccc1)[C@@H](O)[C@H](O)[C@H](Cc1ccccc1)NC(=O)[C@@H](NC(=O)CCc1c[nH]c2ccccc12)C(C)C` [P3-P3' Entry 2], the IC50 is 0.01 µM.

`CC(C)[C@H](NC(=O)CCCc1c[nH]c2ccccc12)C(=O)N[C@@H](Cc1ccccc1)[C@@H](O)[C@H](O)[C@H](Cc1ccccc1)NC(=O)[C@@H](NC(=O)CCCc1c[nH]c2ccccc12)C(C)C` [P3-P3' Entry 3] registered an IC50 of 0.014 µM.

For the compound `CC(C)[C@H](NC(=O)c1cc(O)c2ccccc2n1)C(=O)N[C@@H](Cc1ccccc1)[C@@H](O)[C@H](O)[C@H](Cc1ccccc1)NC(=O)[C@@H](NC(=O)c1cc(O)c2ccccc2n1)C(C)C` [P3-P3' Entry 4], the midpoint of inhibition, the IC50, lay at 0.019 µM.

Take `CCC(C)[C@H](NC(=O)c1ccc2cccc(O)c2n1)C(=O)N[C@@H](Cc1ccccc1)[C@@H](O)[C@H](O)[C@H](Cc1ccccc1)NC(=O)[C@@H](NC(=O)c1ccc2cccc(O)c2n1)C(C)C` (stereo partly drawn) [P3-P3' Entry 5]: the IC50 is over 0.05 µM.

In turn, `CC(C)[C@H](NC(=O)c1ccc2ccccc2n1)C(=O)N[C@@H](Cc1ccccc1)[C@@H](O)[C@H](O)[C@H](Cc1ccccc1)NC(=O)[C@@H](NC(=O)c1ccc2ccccc2n1)C(C)C` [P3-P3' Entry 6] registered a concentration for half-maximal inhibition (IC50) of 0.01 µM. That is a double-digit nanomolar value.

The compound `CC(C)[C@H](NC(=O)COc1ccc2ccccc2c1)C(=O)N[C@@H](Cc1ccccc1)[C@@H](O)[C@H](O)[C@H](Cc1ccccc1)NC(=O)[C@@H](NC(=O)COc1ccc2ccccc2c1)C(C)C` [P3-P3' Entry 7] came in with an IC50 of 0.01 µM.

Take `CC(C)[C@H](NC(=O)c1ccc(-c2ccc([N+](=O)[O-])cc2)o1)C(=O)N[C@@H](Cc1ccccc1)[C@@H](O)[C@H](O)[C@H](Cc1ccccc1)NC(=O)[C@@H](NC(=O)c1ccc(-c2ccc([N+](=O)[O-])cc2)o1)C(C)C` [P3-P3' Entry 8]: the half-maximal inhibitory concentration (IC50) came out at 0.006 µM and the Ki amounted to 0.002 µM.

`CC(C)[C@H](NC(=O)c1ccc([N+](=O)[O-])o1)C(=O)N[C@@H](Cc1ccccc1)[C@@H](O)[C@H](O)[C@H](Cc1ccccc1)NC(=O)[C@@H](NC(=O)c1ccc([N+](=O)[O-])o1)C(C)C` [P3-P3' Entry 9] displayed a concentration for half-maximal inhibition (IC50) of 0.02 µM.

With `CC(C)[C@H](NC(=O)c1ccc(-c2c(Cl)cc([N+](=O)[O-])cc2Cl)o1)C(=O)N[C@@H](Cc1ccccc1)[C@@H](O)[C@H](O)[C@H](Cc1ccccc1)NC(=O)[C@@H](NC(=O)c1ccc(-c2c(Cl)cc([N+](=O)[O-])cc2Cl)o1)C(C)C` [P3-P3' Entry 10], the IC50 is over 0.05 µM.

Compound `CC(C)[C@H](NC(=O)c1ccc(-c2cc(C(F)(F)F)ccc2Cl)o1)C(=O)N[C@@H](Cc1ccccc1)[C@@H](O)[C@H](O)[C@H](Cc1ccccc1)NC(=O)[C@@H](NC(=O)c1ccc(-c2cc(C(F)(F)F)ccc2Cl)o1)C(C)C` [P3-P3' Entry 11] displayed a half-maximal inhibitory concentration (IC50) of over 0.05 µM.

With `CC(C)[C@H](NC(=O)c1ccc(-c2ccc([N+](=O)[O-])cc2[N+](=O)[O-])o1)C(=O)N[C@@H](Cc1ccccc1)[C@@H](O)[C@H](O)[C@H](Cc1ccccc1)NC(=O)[C@@H](NC(=O)c1ccc(-c2ccc([N+](=O)[O-])cc2[N+](=O)[O-])o1)C(C)C` [P3-P3' Entry 12], half-maximal inhibition (IC50) required 0.01 µM.

The compound `CC(C)[C@H](NC(=O)c1ccc(C(=O)c2ccccc2)o1)C(=O)N[C@@H](Cc1ccccc1)[C@@H](O)[C@H](O)[C@H](Cc1ccccc1)NC(=O)[C@@H](NC(=O)c1ccc(C(=O)c2ccccc2)o1)C(C)C` [P3-P3' Entry 13] yielded an IC50 of 0.01 µM.

`CC(C)[C@H](NC(=O)c1ccc(CN2CCCCC2)o1)C(=O)N[C@@H](Cc1ccccc1)[C@@H](O)[C@H](O)[C@H](Cc1ccccc1)NC(=O)[C@@H](NC(=O)c1ccc(CN2CCCCC2)o1)C(C)C` [P3-P3' Entry 14]: the IC50 is over 0.05 µM.

In the case of `CC(C)[C@H](NC(=O)c1ccc(CN2CCOCC2)o1)C(=O)N[C@@H](Cc1ccccc1)[C@@H](O)[C@H](O)[C@H](Cc1ccccc1)NC(=O)[C@@H](NC(=O)c1ccc(CN2CCOCC2)o1)C(C)C` [P3-P3' Entry 15], the IC50 is over 0.05 µM.

For the compound `CC(C)[C@H](NC(=O)c1ccc(-c2ccc(Cl)cc2)o1)C(=O)N[C@@H](Cc1ccccc1)[C@@H](O)[C@H](O)[C@H](Cc1ccccc1)NC(=O)[C@@H](NC(=O)c1ccc(-c2ccc(Cl)cc2)o1)C(C)C` [P3-P3' Entry 16], the IC50 worked out at 0.01 µM.
